PubChem BioAssay AID2060513 (Molecular Pharmacology Branch, DTP, NCI, 2025)

System: 299254-011-R-J1-PDC complex spheroids viability
Test: Anticancer human tumor 299254-011-R-J1-PDC patient-derived melanoma cell line growth inhibition [GQUAD]
Settings: for IC50: curve of first compound; for viability, T/C: stronger effect = lower value
How it was run: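 Multi-cell-type spheroids of tumor cells with HUVEC and mesenchymal stem cells, treated with drug combinations. Concentrations descend in half-log steps from near clinical Cmax, or from 10 microM where Cmax is unknown; viability read-out.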

[1] = second compound 0.0316 µM, first compound 0.0316 µM
[2] = second compound 0.0316 µM, first compound 0.1 µM
[3] = second compound 0.0316 µM, first compound 0.316 µM
[4] = second compound 0.0316 µM, first compound 1 µM
[5] = second compound 0.0316 µM, first compound 3.16 µM
[6] = second compound 0.0316 µM, first compound 10 µM
[7] = second compound 0.1 µM, first compound 0.0316 µM
[8] = second compound 0.1 µM, first compound 0.1 µM
[9] = second compound 0.1 µM, first compound 0.316 µM
[10] = second compound 0.1 µM, first compound 1 µM
[11] = second compound 0.1 µM, first compound 3.16 µM
[12] = second compound 0.1 µM, first compound 10 µM
[13] = second compound 0.316 µM, first compound 0.0316 µM
[14] = second compound 0.316 µM, first compound 0.1 µM
[15] = second compound 0.316 µM, first compound 0.316 µM
[16] = second compound 0.316 µM, first compound 1 µM
[17] = second compound 0.316 µM, first compound 3.16 µM
[18] = second compound 0.316 µM, first compound 10 µM
[19] = second compound 1 µM, first compound 0.0316 µM
[20] = second compound 1 µM, first compound 0.1 µM
[21] = second compound 1 µM, first compound 0.316 µM
[22] = second compound 1 µM, first compound 1 µM
[23] = second compound 1 µM, first compound 3.16 µM
[24] = second compound 1 µM, first compound 10 µM
[25] = second compound 3.16 µM, first compound 0.0316 µM
[26] = second compound 3.16 µM, first compound 0.1 µM
[27] = second compound 3.16 µM, first compound 0.316 µM
[28] = second compound 3.16 µM, first compound 1 µM
[29] = second compound 3.16 µM, first compound 3.16 µM
[30] = second compound 3.16 µM, first compound 10 µM
[31] = second compound 10 µM, first compound 0.0316 µM
[32] = second compound 10 µM, first compound 0.1 µM
[33] = second compound 10 µM, first compound 0.316 µM
[34] = second compound 10 µM, first compound 1 µM
[35] = second compound 10 µM, first compound 3.16 µM
[36] = second compound 10 µM, first compound 10 µM
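Further: spheroids exposed to the agents for seven days before readout.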
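Wherever viability, T/C is given: percent viability relative to DMSO vehicle control wells = 100%.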

## C=CC(=O)N1CCN(c2nc(=O)n(-c3c(C)ccnc3C(C)C)c3nc(-c4c(O)cccc4F)c(F)cc23)C(C)C1 (stereo unspecified) + CN(C)c1ccc(Nc2c3ccc(NC(=O)CCN4CCCC4)cc3nc3cc(NC(=O)CCN4CCCC4)ccc23)cc1
Second compound 0.0316 µM
  IC50: > 10 µM
Second compound 0.1 µM
  IC50: > 10 µM
Second compound 0.316 µM
  IC50: > 10 µM
Second compound 1 µM
  IC50: > 10 µM
Second compound 3.16 µM
  IC50: > 10 µM
Second compound 10 µM
  IC50: > 10 µM
[1]
  viability, T/C: 93.8%
[2]
  viability, T/C: 68.9%
[3]
  viability, T/C: 73.1%
[4]
  viability, T/C: 56.3%
[5]
  viability, T/C: 64.4%
[6]
  viability, T/C: 66.6%
[7]
  viability, T/C: 79.4%
[8]
  viability, T/C: 80.2%
[9]
  viability, T/C: 57%
[10]
  viability, T/C: 60.4%
[11]
  viability, T/C: 74.7%
[12]
  viability, T/C: 74.3%
[13]
  viability, T/C: 76.2%
[14]
  viability, T/C: 81.3%
[15]
  viability, T/C: 62.3%
[16]
  viability, T/C: 68.2%
[17]
  viability, T/C: 67.3%
[18]
  viability, T/C: 65.4%
[19]
  viability, T/C: 81.1%
[20]
  viability, T/C: 74%
[21]
  viability, T/C: 71.8%
[22]
  viability, T/C: 67.4%
[23]
  viability, T/C: 80%
[24]
  viability, T/C: 65%
[25]
  viability, T/C: 71.2%
[26]
  viability, T/C: 83.3%
[27]
  viability, T/C: 75.8%
[28]
  viability, T/C: 60.4%
[29]
  viability, T/C: 73%
[30]
  viability, T/C: 79.1%
[31]
  viability, T/C: 74.4%
[32]
  viability, T/C: 74.8%
[33]
  viability, T/C: 74.7%
[34]
  viability, T/C: 68.2%
[35]
  viability, T/C: 69.7%
[36]
  viability, T/C: 76.8%

## Cc1cccc(N(C)C(=O)C2C(O)CCN2c2nc(C)cc(C(F)(F)F)c2C#N)c1 (stereo unspecified) + CN(C)c1ccc(Nc2c3ccc(NC(=O)CCN4CCCC4)cc3nc3cc(NC(=O)CCN4CCCC4)ccc23)cc1
Second compound 0.0316 µM
  IC50: > 10 µM
Second compound 0.1 µM
  IC50: > 10 µM
Second compound 0.316 µM
  IC50: > 10 µM
Second compound 1 µM
  IC50: > 10 µM
Second compound 3.16 µM
  IC50: > 10 µM
Second compound 10 µM
  IC50: > 10 µM
[1]
  viability, T/C: 118%
[2]
  viability, T/C: 96.8%
[3]
  viability, T/C: 84.9%
[4]
  viability, T/C: 80.5%
[5]
  viability, T/C: 99.2%
[6]
  viability, T/C: 86%
[7]
  viability, T/C: 116%
[8]
  viability, T/C: 84.9%
[9]
  viability, T/C: 89.2%
[10]
  viability, T/C: 83.4%
[11]
  viability, T/C: 90.4%
[12]
  viability, T/C: 81.5%
[13]
  viability, T/C: 103%
[14]
  viability, T/C: 100%
[15]
  viability, T/C: 90.5%
[16]
  viability, T/C: 103%
[17]
  viability, T/C: 95.6%
[18]
  viability, T/C: 103%
[19]
  viability, T/C: 94.9%
[20]
  viability, T/C: 105%
[21]
  viability, T/C: 99.5%
[22]
  viability, T/C: 100%
[23]
  viability, T/C: 105%
[24]
  viability, T/C: 81.3%
[25]
  viability, T/C: 108%
[26]
  viability, T/C: 99.6%
[27]
  viability, T/C: 98.6%
[28]
  viability, T/C: 108%
[29]
  viability, T/C: 84.1%
[30]
  viability, T/C: 80.4%
[31]
  viability, T/C: 102%
[32]
  viability, T/C: 79.4%
[33]
  viability, T/C: 98.7%
[34]
  viability, T/C: 110%
[35]
  viability, T/C: 77.4%
[36]
  viability, T/C: 67.6%

## Cn1ncnc1[C@H]1c2n[nH]c(=O)c3cc(F)cc(c23)N[C@@H]1c1ccc(F)cc1 + CN(C)c1ccc(Nc2c3ccc(NC(=O)CCN4CCCC4)cc3nc3cc(NC(=O)CCN4CCCC4)ccc23)cc1
Second compound 0.0316 µM
  IC50: > 0.316 µM
Second compound 0.1 µM
  IC50: > 0.316 µM
Second compound 0.316 µM
  IC50: > 0.316 µM
Second compound 1 µM
  IC50: > 0.316 µM
Second compound 3.16 µM
  IC50: > 0.316 µM
Second compound 10 µM
  IC50: > 0.316 µM
Second compound 0.0316 µM, first compound 0.000999 µM
  viability, T/C: 108%
Second compound 0.0316 µM, first compound 0.00316 µM
  viability, T/C: 101%
Second compound 0.0316 µM, first compound 0.00999 µM
  viability, T/C: 100%
[1]
  viability, T/C: 101%
Second compound 0.0316 µM, first compound 0.0999 µM
  viability, T/C: 105%
[3]
  viability, T/C: 83.8%
Second compound 0.1 µM, first compound 0.000999 µM
  viability, T/C: 90.5%
Second compound 0.1 µM, first compound 0.00316 µM
  viability, T/C: 109%
Second compound 0.1 µM, first compound 0.00999 µM
  viability, T/C: 107%
[7]
  viability, T/C: 102%
Second compound 0.1 µM, first compound 0.0999 µM
  viability, T/C: 86.9%
[9]
  viability, T/C: 87.5%
Second compound 0.316 µM, first compound 0.000999 µM
  viability, T/C: 110%
Second compound 0.316 µM, first compound 0.00316 µM
  viability, T/C: 90.3%
Second compound 0.316 µM, first compound 0.00999 µM
  viability, T/C: 100%
[13]
  viability, T/C: 106%
Second compound 0.316 µM, first compound 0.0999 µM
  viability, T/C: 93.1%
[15]
  viability, T/C: 97.8%
Second compound 1 µM, first compound 0.000999 µM
  viability, T/C: 121%
Second compound 1 µM, first compound 0.00316 µM
  viability, T/C: 84.5%
Second compound 1 µM, first compound 0.00999 µM
  viability, T/C: 98.4%
[19]
  viability, T/C: 92.8%
Second compound 1 µM, first compound 0.0999 µM
  viability, T/C: 98.6%
[21]
  viability, T/C: 92.6%
Second compound 3.16 µM, first compound 0.000999 µM
  viability, T/C: 110%
Second compound 3.16 µM, first compound 0.00316 µM
  viability, T/C: 98.2%
Second compound 3.16 µM, first compound 0.00999 µM
  viability, T/C: 101%
[25]
  viability, T/C: 105%
Second compound 3.16 µM, first compound 0.0999 µM
  viability, T/C: 112%
[27]
  viability, T/C: 100%
Second compound 10 µM, first compound 0.000999 µM
  viability, T/C: 87%
Second compound 10 µM, first compound 0.00316 µM
  viability, T/C: 85.2%
Second compound 10 µM, first compound 0.00999 µM
  viability, T/C: 89.8%
[31]
  viability, T/C: 101%
Second compound 10 µM, first compound 0.0999 µM
  viability, T/C: 93.9%
[33]
  viability, T/C: 109%
